Assay results as given in US6737383B1, “Herbicidal oxadiazolidines” (priority 1999, dated 2004).

Assays:
[1] = tested on: bedstraw; assay: Test B pre/postemergence bedstraw; type: in vivo, Galium aparine; details: Postemergence; for Plant response rating, Bedstraw: scale 0 to 10, 0 is no effect, 10 is complete control; for Bedstraw plant response rating: scale of 0 to 10 where 0 is no effect and 10 is complete control
Summary of the method: (§1)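 Response is a visual 0-to-10 score relative to untreated plants, where 0 means no effect and 10 means complete control, taken twelve to sixteen days after application. Treatments went onto soil at planting and onto foliage of 1- to 4-leaf plants, using a surfactant-containing non-phytotoxic solvent.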

[2] = tested on: blackgrass; assay: Test B pre/postemergence blackgrass; type: in vivo, Alopecurus myosuroides
Summary of the method: as §1

[3] = tested on: surinam grass; assay: Test B pre/postemergence surinam grass; type: in vivo, Brachiaria decumbens
Summary of the method: as §1

[4] = tested on: cocklebur; assay: Test B pre/postemergence cocklebur; type: in vivo, Xanthium strumarium
Summary of the method: as §1

[5] = tested on: corn; assay: Test B pre/postemergence corn; type: in vivo, Zea mays
Summary of the method: as §1

[6] = tested on: crabgrass; assay: Test B pre/postemergence crabgrass; type: in vivo, Digitaria sanguinalis
Summary of the method: as §1

[7] = tested on: giant foxtail; assay: Test B pre/postemergence giant foxtail; type: in vivo, Setaria faberii
Summary of the method: as §1

[8] = tested on: morningglory; assay: Test B pre/postemergence morningglory; type: in vivo, Ipomoea hederacea
Summary of the method: as §1

[9] = tested on: pigweed; assay: Test B pre/postemergence pigweed; type: in vivo, Amaranthus retroflexus
Summary of the method: as §1

[10] = tested on: rape; assay: Test B pre/postemergence rape; type: in vivo, Brassica napus
Summary of the method: as §1

[11] = tested on: soybean; assay: Test B pre/postemergence soybean; type: in vivo, Glycine max
Summary of the method: as §1

[12] = tested on: sugar beet; assay: Test B pre/postemergence sugar beet; type: in vivo, Beta vulgaris
Summary of the method: as §1

[13] = tested on: velvetleaf; assay: Test B pre/postemergence velvetleaf; type: in vivo, Abutilon theophrasti
Summary of the method: as §1

[14] = tested on: wheat; assay: Test B pre/postemergence wheat; type: in vivo, Triticum aestivum
Summary of the method: as §1

[15] = tested on: wild oat; assay: Test B pre/postemergence wild oat; type: in vivo, Avena fatua
Summary of the method: as §1

[16] = tested on: purple nutsedge; assay: Test B pre/postemergence purple nutsedge; type: in vivo, Cyperus rotundus
Summary of the method: as §1

[17] = tested on: rice; assay: Test B flood test rice; type: in vivo, Oryza sativa
Summary of the method: (§2)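 Each value is a visual injury score relative to controls, with 10 meaning complete control and 0 no effect. Evaluation took place twelve to sixteen days after the 2-leaf-stage plants were treated and kept in the greenhouse.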

[18] = tested on: smallflower flatsedge; assay: Test B flood test smallflower flatsedge; type: in vivo, Cyperus difformis
Summary of the method: as §2

[19] = tested on: duck salad; assay: Test B flood test duck salad; type: in vivo, Heteranthera limosa; details: for Plant response rating, Ducksalad: scale 0 to 10, 0 is no effect, 10 is complete control; for Ducksalad plant response rating: scale of 0 to 10 where 0 is no effect and 10 is complete control
Summary of the method: as §2

[20] = tested on: bamyardgrass; assay: Test B flood test barnyardgrass; type: in vivo, Echinochloa crus-galli; details: for Plant response rating, Barnyardgrass: scale 0 to 10, 0 is no effect, 10 is complete control; for Barnyardgrass plant response rating: scale of 0 to 10 where 0 is no effect and 10 is complete control
Summary of the method: as §2

[21] = Postemergence, Rate 125 g/ha, scale 0 to 10, 0 is no effect, 10 is complete control
[22] = Postemergence, Rate 250 g/ha, scale 0 to 10, 0 is no effect, 10 is complete control
[23] = Postemergence, Rate 500 g/ha, scale of 0 to 10 where 0 is no effect and 10 is complete control
[24] = Preemergence, Rate 62 g/ha, scale 0 to 10 (0 no effect, 10 complete control)
[25] = Preemergence, Rate 125 g/ha, scale of 0 to 10 where 0 is no effect and 10 is complete control
[26] = Preemergence, Rate 250 g/ha, scale of 0 to 10 where 0 is no effect and 10 is complete control
[27] = Preemergence, Rate 500 g/ha, scale 0 to 10, 0 is no effect, 10 is complete control
[28] = Rate 62 g/ha, Postemergence, scale of 0 to 10 where 0 is no effect and 10 is complete control
[29] = Preemergence, Rate 250 g/ha, scale 0 to 10, 0 is no effect, 10 is complete control
[30] = Postemergence section (flood test species), Rate 500 g/ha, scale of 0 to 10 where 0 is no effect and 10 is complete control
[31] = flood test species, listed under Postemergence, Rate 250 g/ha, scale 0 to 10, 0 is no effect, 10 is complete control
[32] = Postemergence (flood test), Rate 125 g/ha
[33] = Postemergence section (flood test species), Rate 500 g/ha
[34] = Rate 62 g/ha, Postemergence (flood test species)
[35] = flood test species, listed under Postemergence, Rate 250 g/ha

CSCCn1c(=O)on(C(=O)N(c2ccccc2)C(C)C)c1=O [Compound 419]
8: B. signalgrass plant response rating ([3]; Preemergence, Rate 500 g/ha, scale of 0 to 10 where 0 is no effect and 10 is complete control)
1: Crabgrass plant response rating [6, 23] | Plant response rating, Crabgrass [6, 25] | Plant response rating, Giant foxtail [7, 22] | Plant response rating, Giant foxtail [7, 25] | Morningglory plant response rating [8, 29] | Velvetleaf plant response rating [13, 29]
5: Giant foxtail plant response rating [7, 27] | Plant response rating, Morningglory [8, 22] | Morningglory plant response rating [8, 23] | Sugarbeets plant response rating [12, 27]
9: Crabgrass plant response rating [6, 27]
10: Redroot pigweed plant response rating [9, 27]
4: Blackgrass plant response rating [2, 23] | Crabgrass plant response rating [6, 29] | Velvetleaf plant response rating [13, 27]
2: B. signalgrass plant response rating [3, 23] | B. signalgrass plant response rating [3, 26] | Giant foxtail plant response rating [7, 29] | Morningglory plant response rating [8, 27] | Rape plant response rating [10, 29] | Rape plant response rating [10, 27] | Velvetleaf plant response rating [13, 23] | Wild oats plant response rating [15, 27] | Rice plant response rating [17, 30]
6: Giant foxtail plant response rating [7, 23] | Redroot pigweed plant response rating [9, 29]
0: Plant response rating, Bedstraw ([1]; Rate 125 g/ha) | Plant response rating, Bedstraw ([1]; Rate 250 g/ha) | Bedstraw plant response rating ([1]; Rate 500 g/ha) | Bedstraw plant response rating ([1]; Rate 62 g/ha) | Plant response rating, Blackgrass [2, 21] | Plant response rating, Blackgrass [2, 22] | Plant response rating, Blackgrass [2, 24] | Plant response rating, Blackgrass [2, 25] | Blackgrass plant response rating [2, 26] | Blackgrass plant response rating [2, 28] | Plant response rating, B. signalgrass [3, 21] | Plant response rating, B. signalgrass [3, 22] | Plant response rating, B. signalgrass [3, 24] | Plant response rating, B. signalgrass [3, 25] | B. signalgrass plant response rating [3, 28] | Plant response rating, Cocklebur [4, 21] | Plant response rating, Cocklebur [4, 22] | Cocklebur plant response rating [4, 23] | Plant response rating, Cocklebur [4, 24] | Plant response rating, Cocklebur [4, 25] | Cocklebur plant response rating [4, 29] | Cocklebur plant response rating [4, 27] | Cocklebur plant response rating [4, 28] | Plant response rating, Corn [5, 21] | Plant response rating, Corn [5, 22] | Corn plant response rating [5, 23] | Plant response rating, Corn [5, 24] | Plant response rating, Corn [5, 25] | Corn plant response rating [5, 29] | Corn plant response rating [5, 27] | Corn plant response rating [5, 28] | Plant response rating, Crabgrass [6, 21] | Plant response rating, Crabgrass [6, 22] | Plant response rating, Crabgrass [6, 24] | Crabgrass plant response rating [6, 28] | Plant response rating, Giant foxtail [7, 21] | Plant response rating, Giant foxtail [7, 24] | Giant foxtail plant response rating [7, 28] | Plant response rating, Morningglory [8, 24] | Plant response rating, Morningglory [8, 25] | Plant response rating, Redroot pigweed [9, 22] | Redroot pigweed plant response rating [9, 23] | Plant response rating, Redroot pigweed [9, 24] | Plant response rating, Redroot pigweed [9, 25] | Plant response rating, Rape [10, 22] | Rape plant response rating [10, 23] | Plant response rating, Rape [10, 24] | Plant response rating, Rape [10, 25] | Plant response rating, Soybean [11, 24] | Plant response rating, Soybean [11, 25] | Soybean plant response rating [11, 29] | Soybean plant response rating [11, 27] | Plant response rating, Sugarbeets [12, 22] | Sugarbeets plant response rating [12, 23] | Plant response rating, Sugarbeets [12, 24] | Plant response rating, Sugarbeets [12, 25] | Plant response rating, Velvetleaf [13, 22] | Plant response rating, Velvetleaf [13, 24] | Plant response rating, Velvetleaf [13, 25] | Wheat plant response rating [14, 23] | Plant response rating, Wheat [14, 24] | Plant response rating, Wheat [14, 25] | Wheat plant response rating [14, 29] | Wheat plant response rating [14, 27] | Wild oats plant response rating [15, 23] | Plant response rating, Wild oats [15, 24] | Plant response rating, Wild oats [15, 25] | Wild oats plant response rating [15, 29] | Plant response rating, Nutsedge [16, 22] | Nutsedge plant response rating [16, 23] | Plant response rating, Nutsedge [16, 24] | Plant response rating, Nutsedge [16, 25] | Nutsedge plant response rating [16, 29] | Nutsedge plant response rating [16, 27] | Plant response rating, Rice [17, 31] | Plant response rating, S. Flatsedge [18, 31] | Plant response rating, Ducksalad [19, 32] | Ducksalad plant response rating [19, 33] | Ducksalad plant response rating [19, 34] | Plant response rating, Ducksalad [19, 35] | Plant response rating, Barnyardgrass [20, 32] | Barnyardgrass plant response rating [20, 33] | Barnyardgrass plant response rating [20, 34] | Plant response rating, Barnyardgrass [20, 35]
3: Blackgrass plant response rating [2, 27] | Plant response rating, Soybean [11, 22] | Soybean plant response rating [11, 23] | Sugarbeets plant response rating [12, 29] | S. Flatsedge plant response rating [18, 30]
